# Where two headings read alike, the source gives them in different places.
# Tests used:
# [1] = test system: dopaminergic, 5-hydroxyhyptaminergic receptors and benzodiazepine receptors; details: cited from earlier work
# amphetamine cue = details: rats trained to discriminate d-amphetamine; cited from earlier work
# [2] = test system: alpha1-adrenergic, dopaminergic, GABAergic, serotonergic (such as 5-HT1A) etc. receptors; details: cited from earlier work
# [3] = test system: atipamezole cue (atipamezole-associated lever selection); type: in vivo; details: for dose at which full generalization was achieved: training dose 1 mg/kg s.c.
# Experimental: A total of 50 Sprague-Dawley male rats (B&K, Sweden) were used in the drug discrimination experiment at Orion Pharma, Turku, Finland. The rats were housed in solid bottom polypropylene cages with stainless steel mesh lids 5 rats per cage on a 12/12 hour light/dark cycle (lights on at 06.00 a.m.) under standard conditions in 21±1° C. temperature. […] During training period the rats were allowed food 6-15 g/day immediately after the session and during testing period they were allowed 12-15 g/day after the session. The rats adopted well to this feeding schedule and grew slowly but steadily. Rats were drug and experimentally naive at the start of the experiments. All experimentation was approved by the local laboratory animal care and experimentation committee. The animals were housed according to the recommendations of Declaration of Helsinki and DHEW pub. No (NIH) 85-23 entitled “Guide for the care and use of laboratory animals”.
# The drugs used were atipamezole HCl and MPV-1730 HCl (Orion Pharma, Finland), d-amphetamine sulphate (Sigma, USA), cocaine HCl (Tamro, Finland)) and desipramine HCl (Sigma, USA). All doses refer to respective salt forms. Drugs were diluted in sterile purified water (Aquasteril, Orion Pharma, Finland) and were prepared daily. Injections were given 30 min before the sessions. Saline (Natrosteril, Orion Pharma, Finland) was used in control administrations. Drugs were administered subcutaneously (s.c.) or intraperiotoneally (i.p.) in a volume of 1 ml/kg or perorally (p.o.) gy a gavage 10 ml/kg.
# In the atipamezole discrimination experiment five identical operant chambers enclosed in larger sound and light attenuating, fan ventilated enclosures were used. Each chamber was equipped with two identical levers on one wall. Between these levers was a food cup, where 45 mg reward pellets (F0021, Bio-Serv, Frenchtown, USA) could be presented. The whole operant system was purchased from Rhema-Labortechnik, Hofheim, Germany.
# The training to press levers for reward pellets was started with 50 rats with a continuous reinforcement (CRF) schedule, when both levers were active and later by changing daily the active lever. […] The duration of the session to this point was 30 min and thereafter the training sessions were reduced to 15 min. The discrimination training dose of atipamezole (1 mg/kg s.c.) was selected according to the effect of atipamezole (0, 0.1, 0.3, 1 and 3 mg/kg s.c.) on FR-10 responding when tested in the rats (session 30, data not shown). Thereafter, discrimination training was started with 46 rats. The discrimination training was done in following two week sequence: S-D-D-S-S and D-S-S-D-D (D=drug appropriate lever, S=saline lever) (Colpaert F., Niemegeers, C., Janssen, P. Theoretical and methodological considerations on drug discrimination learning. Psychopharmacologia (Berl.) 46: 169-177, 1976.). For half of the rats the right lever was a drug-appropriate lever and for the another half the left lever. During training only the drug- or saline-appropriate lever was active, but both levers were recorded. If a rat chose the correct lever during ten consecutive sessions and the total number of responses before the first reinforcer was 15 or less, the rat was accepted to the drug tests.
# When the rats had reached the criterion, they were tested twice a week (usually on Wednesdays and Fridays) with different drugs. The normal sequence of saline or atipamezole was continued on other days. The lever selection had to be correct on the preceding day of the drug test and on the next day after drug test in order to be approved in the results. In the testing day, the rat decided which lever was activated by pressing ten lever presses on either of the levers. The selected lever was activated during the rest of the session. The previous saline day was used as a predrug control value. […]
# [4] = test system: 5-HT1A receptors or 5-HT1D receptors; details: cited from earlier work
# idazoxan cue = details: rats trained to discriminate idazoxan; cited from earlier work
# [5] = test system: psychostimulants such as amphetamine and cocaine (cue); details: rat, in vivo; cited from earlier work
smiles,measurement,setting,value
COC(=O)[C@@H]1[C@H]2C[C@H]3c4[nH]c5ccccc5c4CCN3C[C@@H]2CC[C@@H]1O [yohimbine],affinity to other than noradrenergic receptors,[1],has affinity
same,generalization to amphetamine,amphetamine cue,did not generalize
"CCC1(c2c[nH]cn2)Cc2ccccc2C1.Cl [Atipamezole, 4-(2-ethyl-2,3-dihydro-1H-inden-2-yl)-1H-imidazole hydrochloride]",affinity for any other neurotransmitter receptors,[2],negligible affinity
same,atipamezole-associated lever selection,"[3]; 0.003-10 mg/kg, FIG. 1",dose-responsively increased
same,dose at which full generalization was achieved,"[3]; atipamezole p.o., 60 min before session, FIG. 1",1 mg/kg
same,dose at which full generalization was achieved,"[3]; atipamezole s.c., 30 min before session, FIG. 1",0.3 mg/kg
COC1(C2=NCCN2)COc2ccccc2O1 (stereo not drawn) [RX821002],affinity on 5-HT1A receptors or 5-HT1D receptors,[4],have affinity
c1ccc2c(c1)OCC(C1=NCCN1)O2 (stereo not drawn) [idazoxan],affinity on 5-HT1A receptors or 5-HT1D receptors,[4],have affinity
same,generalization to amphetamine,amphetamine cue,did not generalize
COc1ccccc1N1CCN(CCN2C(=O)c3ccccc3C(C)(C)C2=O)CC1 [ARC 239],affinity on 5-HT1A receptors or 5-HT1D receptors,[4],have affinity
C[C@H](N)Cc1ccccc1 [d-amphetamine],generalization to idazoxan,idazoxan cue,did not generalize
same,generalization to atipamezole cue,"[3]; s.c., tested 0.03-1 mg/kg, at doses 0.5 and 1 mg/kg, 30 min before session, FIG. 2",clearly generalized
"CCC1(c2c[nH]cn2)Cc2ccc(F)cc2C1 (stereo not drawn) [MPV-1730, 4-(2-ethyl-5-fluoro-2,3-dihydro-1H-inden-2-yl)-1H-imidazole]",generalization to atipamezole cue,"[3]; 0.01-1 mg/kg s.c., 30 min before session, FIG. 3",generalized to atipamezole cue
COc1ccc2c(c1)CCN1C[C@H]3CCCN(S(C)(=O)=O)[C@H]3C[C@@H]21 [delequamine],affinity on 5-HT1A receptors or 5-HT1D receptors,[4],have affinity
CNCCCN1c2ccccc2CCc2ccccc21 [desipramine],generalisation to psychostimulants,[5],only weakly
same,generalization to atipamezole,"[3]; i.p., 30 min before session, FIG. 4",not generalized
same,tolerability of higher doses,"[3]; rat, in vivo",discontinued due to a prolonged lack of appetite
CC1c2ccccc2CN1CC1=NCCN1 (stereo not drawn) [BRL 44408],affinity on 5-HT1A receptors or 5-HT1D receptors,[4],have affinity

# Reference: patent publication US20060058364A1, “Treatment of dependence and dependence related withdrawal symptoms” (priority 2002, published 2006)
